Data from patent US20160221989A1, “N-Acylpyrrolidine Ether Tropomyosin-Related Kinase Inhibitors” (Pfizer Inc., priority 2014, published 2016).
pIC50: −log10 of the molar value.

What follows are molecules tested against T1, TRKA (Homo sapiens, UniProt P04629) (assay: Isolated TRK enzyme assay (HTRF KinEASE-TK kit, PV3144 TrkA enzyme assay)). Conditions: recombinant His-tagged cytoplasmic domain aa 441-796, 4 nM enzyme, 40 uM ATP, 35 min, arithmetic mean where more than one reading.
T1 construct: aa 441-; 4 nM; 40 uM; 35 min; (NTRK1); 796; His; purchased Invitrogen PV3144
Type: biochemical
Method: Isolated TRK Enzyme assays use the HTRF KinEASE-TK kit (Cisbio Cat#62TKOPEJ) with recombinant His-tagged cytoplasmic domains of TRKA receptor sourced from Invitrogen (see table below). This activity-assay measures the phosphorylation of tyrosine residues within a substrate from the HTRF kit which has been validated by Cisbio for a variety of tyrosine kinases including the TRK receptors.
0.5 mM stock solutions of test compounds are prepared and serially diluted in 100% DMSO. […] Greiner low volume black plates containing 0.2 ul of serially diluted compound, standard and HPE/ZPE are created using the Bravo nanolitre dispenser. 1× enzyme buffer is prepared from 5× Enzymatic Buffer from the Cisbio KinEASE TK kit using MilliQ water. The buffer is then supplemented with 10 mM MgCl and 2 mM DTT (both from Sigma). […] 2×FAC of enzyme and 2×FAC ATP diluted in 1× complete enzyme buffer is incubated at room temperature for 20 minutes to preactivate the enzyme. Following this preactivation step, 5 ul/well of enzyme+ATP mix is added using a Multidrop Micro to the assay plate, spotted with 0.2 ul 100% DMSO compound. This is left for 20 mins at room temperature before adding 5 ul of 2 uM TK-substrate-Biotin (from the Cisbio kit) diluted in 1× enzyme buffer (1 uM FAC) using the Multidrop Micro. The reaction is incubated at room temperature for the optimized assay reaction time (see table).
After the Detection Reagent addition, plates are covered and incubated at room temperature for 60 minutes. HTRF signal is read using an Envision reader, measured as a ratio of emissions at two different wavelengths, 620 nm and 665 nm. […] Test compound data are expressed as percentage inhibition defined by HPE and ZPE values for each plate.
Percentage inhibition in the presence of test compound is plotted against compound concentration on a log scale to determine an IC50 from the resultant sigmoid curve. Cell Based Assays were carried out using Cell lines from DiscoveRx utilising their PathHunter technology and reagents in an antagonist assay:
Where more than one reading was taken, the arithmetic mean is presented.

T1 sequence (P04629 441-796): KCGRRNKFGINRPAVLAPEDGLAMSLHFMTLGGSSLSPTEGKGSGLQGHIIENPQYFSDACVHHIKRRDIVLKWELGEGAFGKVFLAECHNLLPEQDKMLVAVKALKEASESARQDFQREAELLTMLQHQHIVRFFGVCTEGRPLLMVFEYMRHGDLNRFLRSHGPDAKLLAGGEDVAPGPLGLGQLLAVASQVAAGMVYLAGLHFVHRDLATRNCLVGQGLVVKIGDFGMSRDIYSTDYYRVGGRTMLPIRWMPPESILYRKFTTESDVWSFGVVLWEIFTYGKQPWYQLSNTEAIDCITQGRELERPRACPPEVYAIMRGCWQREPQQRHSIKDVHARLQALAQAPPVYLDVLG

pIC50	Compound
5.90	CNC(=O)c1cnc(N)c(OCC2CN(C(=O)Cc3ccc(OC(F)(F)F)cc3)CC2(F)F)c1 (single isomer, unassigned) [Example 12]
6.20	NC(=O)c1cnc(N)c(COC2CN(C(=O)Cc3ccc(OC(F)(F)F)cc3)CC2(F)F)c1 (single isomer, unassigned) [Example 6]
5.06	CC(C)(O)CNC(=O)c1cnc(N)c(OC2CN(C(=O)Cc3ccc(OC(F)(F)F)cc3)CC2(F)F)c1 (racemic) [Example 10, (S)-6-amino-5-[(4,4-difluoro-1-{[4-(trifluoromethoxy)phenyl]acetyl}pyrrolidin-3-yl)oxy]-N-(2-hydroxy-2-methylpropyl)pyridine-3-carboxamide]
6.96	NC(=O)c1cnc(N)c(OC2CN(C(=O)Cc3ccc(OC(F)(F)F)cc3)CC23CC3)c1 (stereo not drawn) [Example 18, 6-amino-5-[(5-{[4-(trifluoromethoxy)phenyl]acetyl}-5-azaspiro[2.4]hept-7-yl)oxy]pyridine-3-carboxamide]
7.94	CNC(=O)c1cnc(N)c(OCC2CN(C(=O)Cc3ccc(OC(F)(F)F)cc3)CC2(F)F)c1 (single isomer, unassigned) [Example 11]
7.26	CNC(=O)c1cnc(N)c(OC2CN(C(=O)Cc3ccc(OC(F)(F)F)cc3)CC2(C)OC)c1 (racemic) [Example 24, Racemic-6-amino-5-[(4-methoxy-4-methyl-1-{[4-(trifluoromethoxy)phenyl]acetyl}pyrrolidin-3-yl)oxy]-N-methylpyridine-3-carboxamide]
7.91	CNC(=O)c1cnc(N)c(O[C@H]2CN(C(=O)Cc3ccc(OC(F)(F)F)cc3)CC2(C)C)c1 [Example 20, (R)-6-amino-5-[(4,4-dimethyl-1-{[4-(trifluoromethoxy)phenyl]acetyl}pyrrolidin-3-yl)oxy]-N-methylpyridine-3-carboxamide]
5.68	C[C@H]1CN(C(=O)Cc2ccc(OC(F)(F)F)cc2)C[C@@H]1Oc1cc(C(=O)NCC(C)(C)O)cnc1N [Example 23, (3R,4S)-6-amino-N-(2-hydroxy-2-methylpropyl)-5-[(4-methyl-1-{[4-(trifluoromethoxy)phenyl]acetyl}pyrrolidin-3-yl)oxy]pyridine-3-carboxamide]
7.80	NC(=O)c1cnc(N)c(OCC2CN(C(=O)Cc3ccc(OC(F)(F)F)cc3)CC2(F)F)c1 (single isomer, unassigned) [Example 15]
6.83	Nc1ncc(C(=O)NCCO)cc1OC1CN(C(=O)Cc2ccc(OC(F)(F)F)cc2)CC1(F)F (single isomer, unassigned) [Example 8]
6.89	CCN(CC)C(=O)c1cnc(N)c(OC2CN(C(=O)Cc3ccc(OC(F)(F)F)cc3)CC2(C)OC)c1 (racemic) [Example 25, Racemic-6-amino-N,N-diethyl-5-[(4-methoxy-4-methyl-1-{[4-(trifluoromethoxy)phenyl]acetyl}pyrrolidin-3-yl)oxy]pyridine-3-carboxamide]
6.90	CCNC(=O)c1cnc(N)c(O[C@H]2CN(C(=O)Cc3ccc(OC(F)(F)F)cc3)C[C@@H]2C)c1 [Example 21, (3R,4S)-6-amino-N-ethyl-5-[(4-methyl-1-{[4-(trifluoromethoxy)phenyl]acetyl}pyrrolidin-3-yl)oxy]pyridine-3-carboxamide]
6.48	C[C@H]1CN(C(=O)Cc2ccc(OC(F)(F)F)cc2)C[C@@H]1Oc1cc(C(=O)NCC#N)cnc1N [Example 22, (3R,4S)-6-amino-N-(cyanomethyl)-5-[(4-methyl-1-{[4-(trifluoromethoxy)phenyl]acetyl}pyrrolidin-3-yl)oxy]pyridine-3-carboxamide]
7.14	CNC(=O)c1cnc(N)c(OC2CN(C(=O)Cc3ccc(OC(F)(F)F)cc3)CC23CC3)c1 (stereo not drawn) [Example 16, 6-amino-N-methyl-5-[(5-{[4-(trifluoromethoxy)phenyl]acetyl}-5-azaspiro[2.4]hept-7-yl)oxy]pyridine-3-carboxamide]
7.52	NC(=O)c1cnc(N)c(OCC2CN(C(=O)Cc3ccc(OC(F)(F)F)cc3)CC2(F)F)c1 (racemic) [Example 13, Racemic-6-amino-5-[(4,4-difluoro-1-{[4-(trifluoromethoxy)phenyl]acetyl}pyrrolidin-3-yl)methoxy]pyridine-3-carboxamide]
7.93	CC1(C)CN(C(=O)Cc2ccc(OC(F)(F)F)cc2)C[C@@H]1Oc1cc(C(N)=O)cnc1N [Example 19, (R)-6-amino-5-[(4,4-dimethyl-1-{[4-(trifluoromethoxy)phenyl]acetyl}pyrrolidin-3-yl)oxy]pyridine-3-carboxamide]
6.98	CNC(=O)c1cnc(N)c(O[C@H]2CN(C(=O)Cc3ccc(OC(F)(F)F)cc3)C[C@@H]2C)c1 [Example 17, (3R,4S)-6-amino-N-methyl-5-[(4-methyl-1-{[4-(trifluoromethoxy)phenyl]acetyl}pyrrolidin-3-yl)oxy]pyridine-3-carboxamide]
7.97	NC(=O)c1cnc(N)c(COC2CN(C(=O)Cc3ccc(OC(F)(F)F)cc3)CC2(F)F)c1 (single isomer, unassigned) [Example 5]
